{"source": "patent US20260256830A1", "about": "“PERITONEAL DIALYSIS FLUID” (ZYTOPROTEC FLEXIBLE KAPITALGESELLSCHAFT, priority 2022, published 2026)", "test": "Long-term stability of AGD in alkaline solution (amino acid analysis)", "assay_type": "physicochemical", "conditions": "52 weeks; for AGD, % of original amount after storage: 25° C./60% rH", "description": "The long-term stability tests of AGD in an alkaline solution according to the present invention have been performed. […] The pH of each sample was adjusted with 1 M NaOH. Aliquots of each sample were prepared under controlled conditions and stored under the defined conditions at 25° C./60% rH. Sterilization was performed under following conditions: The stability of AGD has been investigated by AS analysis. Analysis was performed by […] amino acid analysis with JEX and post column derivatization with Ninhydrine.", "note": "Peptide text beside a SMILES is read from it."}
{"smiles": "C[C@H](N)C(=O)N[C@@H](CCC(N)=O)C(=O)O", "note": "[AGD, L-alanyl-L-glutamine] (H-Ala-Gln-OH)", "values": [{"measurement": "decrease of the AGD, of original amount", "setting": "both samples (pH 7.4 and 7.8), storage at 25° C./60% rH", "result": "less than 5%"}, {"measurement": "AGD, % of original amount after storage", "setting": "sample with pH-value of 7.4", "result": 98, "unit": "%"}, {"measurement": "AGD, % of original amount after storage", "setting": "sample with pH-value of 7.8", "result": "> 95", "unit": "%"}]}
